The record followed here is ChEMBL document CHEMBL5096147, “Glycogen Synthase Kinase 3β: A New Gold Rush in Anti-Alzheimer's Disease Multitarget Drug Discovery?” (J Med Chem, 2021).

Bounds are passed on as bounds.

The target of one data set is Adenosine kinase (Homo sapiens, UniProt P55263). Put plainly: Inhibition of human wild type AK expressed in Escherichia coli using [2,8- 3H]-Ado and ATP as substrate by radiometric analysis.
Data set [1] concerns the target T1, Glycogen synthase kinase-3 beta (Homo sapiens, UniProt P49841).
Description: Inhibition of GSK-3beta (unknown origin)
For a further data set, the target named is Beta-secretase 1 (Homo sapiens, UniProt P56817). Put plainly: Inhibition of BACE-1 (unknown origin) using M-240 (methoxycoumarin-Ser-Glu-Val-Asn-Leu-Asp-Ala-Glu-Phe-Lys-dinitrophenyl) peptide as substrate preincubated for 60 mins followed by substrate addition and measured after 15 mins by fluorescence based analysis.
Chain of Beta-secretase 1 (P56817 whole entry): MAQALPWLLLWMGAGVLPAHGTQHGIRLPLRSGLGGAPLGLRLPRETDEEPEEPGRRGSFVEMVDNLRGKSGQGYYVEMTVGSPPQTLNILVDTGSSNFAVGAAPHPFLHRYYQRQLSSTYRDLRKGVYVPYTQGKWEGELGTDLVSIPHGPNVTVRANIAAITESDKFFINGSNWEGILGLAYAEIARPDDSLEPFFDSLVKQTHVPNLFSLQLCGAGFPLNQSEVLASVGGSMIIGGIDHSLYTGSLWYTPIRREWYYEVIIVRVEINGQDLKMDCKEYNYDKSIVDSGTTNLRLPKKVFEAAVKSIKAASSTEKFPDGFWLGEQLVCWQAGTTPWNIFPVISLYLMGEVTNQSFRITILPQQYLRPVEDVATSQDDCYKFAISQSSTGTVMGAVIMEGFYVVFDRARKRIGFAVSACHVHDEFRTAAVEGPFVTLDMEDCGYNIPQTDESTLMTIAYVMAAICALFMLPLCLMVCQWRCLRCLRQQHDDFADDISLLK
Data set [2] addresses T1, Glycogen synthase kinase-3 beta. The data set is described as follows: Inhibition of recombinant human GSK-3beta incubated for 30 mins using prephosphorylated polypeptide as substrate in presence of ATP by Kinase-Glo reagent based luminescent assay. (In general: In Kinase-Glo more light means more ATP remaining.)
Data set [3] in a line: Kinetic aqueous solubility of the compound in PBS buffer at pH 7.4 at 250 uM and measured after 24 hrs by UPLC/MS analysis. It counts as physicochemical. To be noted: read-out: Kinetic_solubility.
Data set [4] is described as follows: Cmax in CD-1 mouse plasma at 10 mg/kg, po and measured after 30 mins by LC-MS/MS analysis. The class given is ADME, organism-based. Set-up: dose 10 mg/kg, time 30 min, route po.
A short description of data set [5]: Cmax in CD-1 mouse brain at 10 mg/kg, po and measured after 30 mins by LC-MS/MS analysis. It counts as ADME, organism-based. Set-up: dose 10 mg/kg, time 30 min, route po.

T1 sequence (P49841 whole entry): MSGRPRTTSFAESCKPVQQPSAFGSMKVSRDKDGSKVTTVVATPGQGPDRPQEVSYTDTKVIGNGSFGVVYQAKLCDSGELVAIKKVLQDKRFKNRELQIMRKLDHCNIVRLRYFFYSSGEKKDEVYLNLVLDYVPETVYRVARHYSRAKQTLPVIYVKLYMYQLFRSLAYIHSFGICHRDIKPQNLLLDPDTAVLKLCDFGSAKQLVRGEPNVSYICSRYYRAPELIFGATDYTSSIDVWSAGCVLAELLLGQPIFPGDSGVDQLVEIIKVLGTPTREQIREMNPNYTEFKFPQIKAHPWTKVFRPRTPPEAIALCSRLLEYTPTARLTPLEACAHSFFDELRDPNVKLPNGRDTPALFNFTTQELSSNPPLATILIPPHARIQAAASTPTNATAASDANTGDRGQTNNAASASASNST
Chain of Adenosine kinase (P55263 whole entry): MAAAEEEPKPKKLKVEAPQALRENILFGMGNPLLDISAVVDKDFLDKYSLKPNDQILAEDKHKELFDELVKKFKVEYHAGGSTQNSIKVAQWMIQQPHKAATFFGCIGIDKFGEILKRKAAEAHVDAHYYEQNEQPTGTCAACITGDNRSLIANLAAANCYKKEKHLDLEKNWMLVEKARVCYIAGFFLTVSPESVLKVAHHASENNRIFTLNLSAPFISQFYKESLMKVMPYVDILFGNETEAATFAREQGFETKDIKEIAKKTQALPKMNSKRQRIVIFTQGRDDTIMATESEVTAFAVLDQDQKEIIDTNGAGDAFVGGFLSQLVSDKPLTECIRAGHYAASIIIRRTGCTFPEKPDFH

In general, IC50 refers to the point on the concentration scale where inhibition reaches its midpoint. In the case of `CCC1(c2ccc(COc3ccccc3)cc2)Oc2ccccc2-n2cccc2C1=O` (configuration not stated), on Adenosine kinase, the half-maximal inhibitory concentration (IC50) came out at 1.2 µM.
In the case of `COc1cc2c(Br)cc3c(c2cc1OC)C(=O)NC3=O`, 0.304 µM corresponded to half-maximal inhibition in data set [1] (IC50).
One may read the Cmax as the maximum level reached in the sampled fluid or tissue. With `NC1=NC(c2ccc(F)cc2)CC(=O)N1` (configuration not stated), the results for the IC50 (against Beta-secretase 1; in data set [2]) were 18 µM and 14.7 µM, respectively. Besides, the solubility kinetic at 24 h, 250 µM in data set [3] was over 250 µM. Besides, the results for the Cmax in data set [4] and in data set [5] were 665 ng/mL and 0.613 ng/mL, respectively.
